From US20180371044A1, “PEPTIDOMIMETIC MACROCYCLES” (Aileron Therapeutics, Inc., priority 2015, published 2018)
Where a SMILES comes first, the peptide text is derived from it. Bridges are numbered along the chain shown (N, C = ends). [ ]: non-standard residue; d: D form. NMeY = CN[C@@H](Cc1ccc(O)cc1)C(=O)O; R8 = C=CCCCCCC[C@@](C)(N)C(=O)O; S5 = C=CCCC[C@](C)(N)C(=O)O; hSer = N[C@@H](CCO)C(=O)O; Nle = CCCC[C@H](N)C(=O)O; Aib = CC(C)(N)C(=O)O

Target: T1, human GHRH receptor (hGHRHR) (Homo sapiens, UniProt Q02643)
T1 construct: expressed in transfected cells; host or cells: Human 293 cells
T1 sequence (Q02643 23-423): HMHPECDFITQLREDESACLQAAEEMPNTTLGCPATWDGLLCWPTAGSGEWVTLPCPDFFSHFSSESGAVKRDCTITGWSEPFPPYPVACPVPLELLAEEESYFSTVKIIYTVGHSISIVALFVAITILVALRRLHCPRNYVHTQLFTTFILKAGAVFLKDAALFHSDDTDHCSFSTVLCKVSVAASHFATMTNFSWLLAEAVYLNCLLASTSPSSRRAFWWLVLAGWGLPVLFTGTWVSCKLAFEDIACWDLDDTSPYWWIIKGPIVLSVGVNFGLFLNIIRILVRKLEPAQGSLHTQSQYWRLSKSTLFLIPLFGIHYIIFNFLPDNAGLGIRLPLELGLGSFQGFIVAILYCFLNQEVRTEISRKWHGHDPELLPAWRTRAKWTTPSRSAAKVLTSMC
Experiment: GHRHR agonism measured by cAMP (HTRF) in human 293 cells expressing hGHRHR;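 note: receptor expressed transiently or stably, cells stimulated in serum-free medium, EC50 from a non-linear dose-response fit, maximal response defined by reference GHRH stimulation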
Assay type: cell-based
Conditions: 30 min at RT

SMILES | EC50 [µM]
CCCC[C@H](NC(=O)[C@@H](NC(=O)[C@H](CC(=O)O)NC(=O)[C@H](CCC(N)=O)NC(=O)[C@H](CC(C)C)NC(=O)[C@H](C)NC(=O)[C@H](CCCCN)NC(=O)[C@H](CCCNC(=N)N)NC(=O)[C@]1(C)CCCC=CCCCCCC[C@@](C)(NC(=O)[C@H](CCCNC(=N)N)NC(=O)[C@H](Cc2ccc(O)cc2)NC(=O)[C@H](CO)NC(=O)[C@H](C)NC(=O)[C@@H](NC(=O)[C@H](Cc2ccccc2)NC(=O)[C@@H](NC(=O)[C@H](C)NC(=O)[C@H](CC(=O)O)NC(=O)[C@H](C)NC(=O)[C@H](Cc2ccc(O)cc2)NC)[C@@H](C)CC)[C@@H](C)O)C(=O)N[C@@H](C(C)C)C(=O)N[C@@H](CC(C)C)C(=O)N[C@@H](C)C(=O)N[C@@H](CCC(N)=O)C(=O)N[C@@H](CC(C)C)C(=O)N[C@@H](CO)C(=O)N1)[C@@H](C)CC)C(=O)N[C@@H](CO)C(=O)N[C@@H](CCCNC(=N)N)C(=O)N[C@@H](CCC(=O)O)C(=O)N[C@@H](CCC(=O)O)C(=O)N[C@@H](CCC(=O)O)C(N)=O [SP-59] (H-[NMeY]ADAIFTASYR[R8]VLAQLS[S5]RKALQDI[Nle]SREEE-NH2; staple 12-19) | 0.025 to 0.05
CCCC[C@H](NC(=O)[C@@H](NC(=O)[C@H](CC(=O)O)NC(=O)[C@H](CCC(N)=O)NC(=O)[C@H](CC(C)C)NC(=O)[C@H](C)NC(=O)[C@H](CCCCN)NC(=O)[C@H](CCCNC(=N)N)NC(=O)[C@]1(C)CCCC=CCCCCCC[C@@](C)(NC(=O)[C@H](CCCNC(=N)N)NC(=O)[C@H](Cc2ccc(O)cc2)NC(=O)[C@H](CO)NC(=O)[C@H](C)NC(=O)[C@@H](NC(=O)[C@H](Cc2ccccc2)NC(=O)[C@@H](NC(=O)[C@H](C)NC(=O)[C@H](CC(=O)O)NC(=O)[C@H](C)NC(=O)[C@H](Cc2ccc(O)cc2)NC)[C@@H](C)CC)[C@@H](C)O)C(=O)N[C@@H](C(C)C)C(=O)N[C@@H](CC(C)C)C(=O)N[C@@H](C)C(=O)N[C@@H](CCC(N)=O)C(=O)N[C@@H](CC(C)C)C(=O)N[C@@H](CO)C(=O)N1)[C@@H](C)CC)C(=O)N[C@@H](CO)C(N)=O [SP-60] (H-[NMeY]ADAIFTASYR[R8]VLAQLS[S5]RKALQDI[Nle]S-NH2; staple 12-19) | 0.025 to 0.05
CCCC[C@H](NC(=O)[C@@H](NC(=O)[C@H](C)NC(=O)[C@H](CCC(N)=O)NC(=O)[C@H](CC(C)C)NC(=O)[C@H](C)NC(=O)[C@H](CCCCN)NC(=O)[C@H](CCCNC(=N)N)NC(=O)[C@]1(C)CCCC=CCCCCCC[C@@](C)(NC(=O)[C@H](CCCNC(=N)N)NC(=O)[C@H](Cc2ccc(O)cc2)NC(=O)[C@H](CO)NC(=O)[C@H](C)NC(=O)[C@@H](NC(=O)[C@H](Cc2ccccc2)NC(=O)[C@@H](NC(=O)[C@H](C)NC(=O)[C@H](CC(=O)O)NC(=O)[C@H](C)NC(=O)[C@H](Cc2ccc(O)cc2)NC)[C@@H](C)CC)[C@@H](C)O)C(=O)N[C@@H](C(C)C)C(=O)N[C@@H](CC(C)C)C(=O)N[C@@H](C)C(=O)N[C@@H](CCC(N)=O)C(=O)N[C@@H](CC(C)C)C(=O)N[C@@H](CO)C(=O)N1)[C@@H](C)CC)C(=O)N[C@@H](CO)C(=O)N[C@@H](CCCNC(=N)N)C(N)=O [SP-61] (H-[NMeY]ADAIFTASYR[R8]VLAQLS[S5]RKALQAI[Nle]SR-NH2; staple 12-19) | 0.01 to 0.025
CCCC[C@H](NC(=O)[C@H](C)NC(=O)[C@H](CC(=O)O)NC(=O)[C@H](CCC(N)=O)NC(=O)[C@H](CC(C)C)NC(=O)[C@H](C)NC(=O)[C@H](CCCCN)NC(=O)[C@H](CCCNC(=N)N)NC(=O)[C@]1(C)CCCC=CCCCCCC[C@@](C)(NC(=O)[C@H](CCCNC(=N)N)NC(=O)[C@H](Cc2ccc(O)cc2)NC(=O)[C@H](CO)NC(=O)[C@H](C)NC(=O)[C@@H](NC(=O)[C@H](Cc2ccccc2)NC(=O)[C@@H](NC(=O)[C@H](C)NC(=O)[C@H](CC(=O)O)NC(=O)[C@H](C)NC(=O)[C@H](Cc2ccc(O)cc2)NC)[C@@H](C)CC)[C@@H](C)O)C(=O)N[C@@H](C(C)C)C(=O)N[C@@H](CC(C)C)C(=O)N[C@@H](C)C(=O)N[C@@H](CCC(N)=O)C(=O)N[C@@H](CC(C)C)C(=O)N[C@@H](CO)C(=O)N1)C(=O)N[C@@H](CO)C(=O)N[C@@H](CCCNC(=N)N)C(N)=O [SP-62] (H-[NMeY]ADAIFTASYR[R8]VLAQLS[S5]RKALQDA[Nle]SR-NH2; staple 12-19) | 0.025 to 0.05
CCCC[C@H](NC(=O)[C@@H](NC(=O)[C@H](CC(=O)O)NC(=O)[C@H](CCC(N)=O)NC(=O)[C@H](CC(C)C)NC(=O)C(C)(C)NC(=O)[C@H](CCCCN)NC(=O)[C@H](CCCNC(=N)N)NC(=O)[C@]1(C)CCCC=CCCCCCC[C@@](C)(NC(=O)[C@H](CCCNC(=N)N)NC(=O)[C@H](Cc2ccc(O)cc2)NC(=O)[C@H](CO)NC(=O)[C@H](C)NC(=O)[C@@H](NC(=O)[C@H](Cc2ccccc2)NC(=O)[C@@H](NC(=O)[C@H](C)NC(=O)[C@H](CC(=O)O)NC(=O)[C@H](C)NC(=O)[C@H](Cc2ccc(O)cc2)NC)[C@@H](C)CC)[C@@H](C)O)C(=O)N[C@@H](C(C)C)C(=O)N[C@@H](CC(C)C)C(=O)N[C@@H](C)C(=O)N[C@@H](CCC(N)=O)C(=O)N[C@@H](CC(C)C)C(=O)N[C@@H](CO)C(=O)N1)[C@@H](C)CC)C(=O)N[C@@H](CO)C(=O)N[C@@H](CCCNC(=N)N)C(N)=O [SP-65] (H-[NMeY]ADAIFTASYR[R8]VLAQLS[S5]RK[Aib]LQDI[Nle]SR-NH2; staple 12-19) | 0.025 to 0.05

The remaining lines, values ahead:

EC50 [µM] | SMILES
0.01 to 0.025 | CCCC[C@H](NC(=O)[C@@H](NC(=O)[C@H](CC(=O)O)NC(=O)[C@H](CCC(N)=O)NC(=O)[C@H](CC(C)C)NC(=O)[C@H](C)NC(=O)[C@H](CCCCN)NC(=O)[C@H](CCCNC(=N)N)NC(=O)[C@]1(C)CCCC=CCCCCCC[C@@](C)(NC(=O)[C@H](CCCNC(=N)N)NC(=O)[C@H](Cc2ccc(O)cc2)NC(=O)[C@H](CO)NC(=O)[C@H](C)NC(=O)[C@@H](NC(=O)[C@H](Cc2ccccc2)NC(=O)[C@@H](NC(=O)[C@H](C)NC(=O)[C@H](CC(=O)O)NC(=O)[C@H](C)NC(=O)[C@H](Cc2ccc(O)cc2)NC)[C@@H](C)CC)[C@@H](C)O)C(=O)N[C@@H](C(C)C)C(=O)N[C@@H](CC(C)C)C(=O)N[C@@H](C)C(=O)N[C@@H](CCC(N)=O)C(=O)N[C@@H](CC(C)C)C(=O)N[C@@H](CO)C(=O)N1)[C@@H](C)CC)C(=O)N[C@@H](CO)C(=O)N[C@@H](CCCNC(=N)N)C(N)=O [SP-57]
0.01 to 0.025 | CCCC[C@H](NC(=O)[C@@H](NC(=O)[C@H](CC(=O)O)NC(=O)C(C)(C)NC(=O)[C@H](CC(C)C)NC(=O)[C@H](C)NC(=O)[C@H](CCCCN)NC(=O)[C@H](CCCNC(=N)N)NC(=O)[C@]1(C)CCCC=CCCCCCC[C@@](C)(NC(=O)[C@H](CCCNC(=N)N)NC(=O)[C@H](Cc2ccc(O)cc2)NC(=O)[C@H](CO)NC(=O)C(C)(C)NC(=O)[C@@H](NC(=O)[C@H](Cc2ccccc2)NC(=O)[C@@H](NC(=O)[C@H](C)NC(=O)[C@H](CC(=O)O)NC(=O)[C@H](C)NC(=O)[C@H](Cc2ccc(O)cc2)NC)[C@@H](C)CC)[C@@H](C)O)C(=O)N[C@@H](C(C)C)C(=O)N[C@@H](CC(C)C)C(=O)N[C@@H](C)C(=O)N[C@@H](CCC(N)=O)C(=O)N[C@@H](CC(C)C)C(=O)N[C@@H](CO)C(=O)N1)[C@@H](C)CC)C(=O)N[C@@H](CO)C(=O)N[C@@H](CCCNC(=N)N)C(N)=O [SP-67] (H-[NMeY]ADAIFT[Aib]SYR[R8]VLAQLS[S5]RKAL[Aib]DI[Nle]SR-NH2; staple 12-19)
0.01 to 0.025 | CC[C@H](C)[C@H](NC(=O)[C@H](C)NC(=O)[C@H](CC(=O)O)NC(=O)[C@H](C)NC(=O)[C@H](Cc1ccc(O)cc1)NC)C(=O)N[C@@H](Cc1ccccc1)C(=O)N[C@H](C(=O)N[C@@H](C)C(=O)N[C@@H](CO)C(=O)N[C@@H](Cc1ccc(O)cc1)C(=O)N[C@@H](CCCNC(=N)N)C(=O)N[C@]1(C)CCCCCCC=CCCC[C@@](C)(C(=O)N[C@@H](CCCNC(=N)N)C(=O)N[C@@H](CCCCN)C(=O)N[C@@H](C)C(=O)N[C@@H](CC(C)C)C(=O)N[C@@H](CCC(N)=O)C(=O)N[C@@H](CC(=O)O)C(=O)N[C@H](C(=O)N[C@@H](CCOC)C(=O)N[C@@H](CO)C(=O)N[C@@H](CCCNC(=N)N)C(N)=O)[C@@H](C)CC)NC(=O)[C@H](CO)NC(=O)[C@H](CC(C)C)NC(=O)[C@H](CCC(N)=O)NC(=O)[C@H](C)NC(=O)[C@H](CC(C)C)NC(=O)[C@H](C(C)C)NC1=O)[C@@H](C)O [SP-68] (H-[NMeY]ADAIFTASYR[R8]VLAQLS[S5]RKALQDI[hSer](Me)SR-NH2; staple 12-19)
